Experiments:
Assay type in all cases: in vivo
[1] = test system: 'M202' rice (Japonica rice variety from California, USA); assay: Greenhouse in-water application, transplanted paddy rice (small pots), crop injury
Excerpt: (§1) Weed seeds of the desired test plant species were planted in puddled soil (mud) prepared by mixing a non-sterilized mineral soil (approximately 50 percent silt, 26 percent clay, and 24 percent sand, with a pH of about 7.6 and an organic matter content of about 2.9 percent) and water at a 1:1 volumetric ratio. The prepared mud was dispensed in 365 milliliter (mL) aliquots into 16-ounce (oz.) non-perforated plastic pots with a surface area of 86.59 square centimeters (cm^2) leaving a headspace of 3 centimeters (cm) in each pot. Mud was allowed to dry overnight prior to planting or transplanting. Rice seeds were planted in Sun Gro® MetroMix® 360 planting mixture, which typically has a pH of 6.0 to 6.8 and an organic matter content of about 30 percent, in plastic plug trays. Seedlings at the second or third leaf stage of growth were transplanted into 840 mL of mud contained in 32-oz. non-perforated plastic pots with a surface area of 86.59 cm^2 four days prior to herbicide application. The paddy was created by filling the headspace of the pots with 2.5 to 3 cm of water. When required to ensure good germination and healthy plants, a fungicide treatment and/or other chemical or physical treatment was applied. The plants were grown for 4-22 days (d) in a greenhouse with an approximate 14-hour (h) photoperiod which was maintained at about 29° C. during the day and 26° C. during the night. Nutrients were added as Osmocote® (19:6:12, Nitrogen:Phosphorus:Potassium (N:P:K)+minor nutrients) at 2 g per 16 oz. pot and 4 g per 32 oz. pot. Water was added on a regular basis to maintain the paddy flood, and supplemental lighting was provided with overhead metal halide 1000-Watt lamps as necessary. The plants were used for testing when they reached the second or third true leaf stage.
(§2) Triclopyr triethylammonium (as Grandstand® R, 359.5 grams acid equivalent per liter (g ae/L)); fluroxypyr methylheptyl ester (meptyl or MHE, as Starane™, 179.8 g ae/L); 2,4-dichlorophenoxyacetic acid dimethylammonium (2,4-D DMA, as Weedar® 64, 455.4 g ae/L); and penoxsulam (as Grasp® SC, 239.7 grams active ingredient per liter (g ai/L) were used. Measured amounts of formulated compounds were placed in individual 120 mL glass vials and were dissolved in 40 mL of an aqueous mixture containing 1.25% volume per volume (v/v) Agri-Dex® crop oil concentrate. Generally, multiple concentrations were tested utilizing the same stock solution. Applications were made by injecting an appropriate amount of the application solution into the aqueous layer of the paddy. Control plants were treated in the same manner with the solvent blank.
(§3) The treated plants and control plants were placed in a greenhouse as described above and water was added as needed to maintain a paddy flood. After approximately 3 weeks the condition of the test plants, compared with that of the untreated plants, was determined visually and scored on a scale of 0 to 100 percent where 0 corresponds to no injury or growth reduction and 100 corresponds to complete kill.

[2] = test system: 'Wells' rice (Medium grain rice variety from Arkansas, USA); assay: as above
Excerpt: as §1, §2, §3

[3] = test system: CYDPI = Cyperus difformis (small-flower flatsedge); assay: Greenhouse in-water herbicidal activity (small pots)
Excerpt: as §1, §2, §3

[4] = test system: ECHCG = Echinochloa crus-galli (barnyardgrass); assay: as above
Excerpt: as §1, §2, §3

[5] = test system: MOOVA = Monochoria vaginalis (monochoria); assay: as above
Excerpt: as §1, §2, §3

[6] = test system: SCPJU = Schoenoplectus juncoides (Japanese bulrush); assay: as above
Excerpt: as §1, §2, §3

[7] = test system: ORYSP = Oryza sativa Japonica (transplanted paddy rice); assay: Field trial in-water application, crop tolerance
Protocol: (§4) Field trials were conducted in rice using standard herbicide small plot research methodology. Plot size was 2 square meters (m^2) using 1.6 meter (m) diameter rings placed into the rice paddy soil with capability for flooding to maintain good rice cultural practices and rice growing conditions. There were 3 replicates per treatment. Rice was Japonica type that was hand-transplanted into the saturated soil in the rings as per normal cultural practices. The transplanted rice crop was grown using normal cultural practices for fertilization, watering, flooding and maintenance to ensure good growth of the crop and the weeds under transplanted rice conditions in Taiwan.
(§5) Treatments were applied by mixing the treatments with deionized water just prior to water-injection application by hand to multiple sides in the ring plots. For each 2 m^2 plot, 50 mL deionized water was mixed with the appropriate formulated product amounts to treat 2 m^2 to achieve the desired application rates based on unit area of application (hectare). Ring plot water depth was kept at 3 to 7 cm deep before and after water-injection application.
(§6) The rice and weeds were evaluated at 28 days after application (DAA). Triclopyr triethylammonium (as Garlon® 3 A, 360 g ae/L); fluroxypyr methylheptyl ester (meptyl or MHE, as Starane® Ultra, 333 g ae/L); 2,4-dichlorophenoxyacetic acid dimethylammonium (2,4-D AMINE, 400 g ae/L SL); penoxsulam (as Grasp® SC, 240 g ai/L); and bensulfuron-methyl (as LONDAX® 10% WAY WP) were used.
(§7) The treated and control plots were rated at 28 days after application. Ratings were based on percent (%) visual weed control, where 0 corresponds to no control and 100 corresponds to complete control.

[8] = test system: CYPDI = Cyperus difformis (small-flower flatsedge); assay: Field trial in-water herbicidal efficacy
Protocol: as §4, §5, §6, §7

[9] = test system: ECHCG = Echinochloa crus-galli (barnyardgrass); assay: Field trial in-water herbicidal efficacy
Protocol: as §4, §5, §6, §7

[10] = test system: LEFCH = Leptochloa chinensis (Chinese sprangletop); assay: Field trial in-water herbicidal efficacy
Protocol: as §4, §5, §6, §7

[11] = test system: MOOVA = Monochoria vaginalis (monochoria); assay: Field trial in-water herbicidal efficacy
Protocol: as §4, §5, §6, §7

[12] = test system: SCPJU = Schoenoplectus juncoides (Japanese bulrush); assay: Field trial in-water herbicidal efficacy
Protocol: as §4, §5, §6, §7

O=C(O)COc1nc(Cl)c(Cl)cc1Cl [Triclopyr triethanolamine (Garlon ® 3A), triethylammonium 2[(3,5,6-trichloro-2-pyridinyl)oxy]acetate]
100%: Percent (%) Visual Injury Ratings - 20 DAA, CYDPI ([3]; 280 g ae/ha in-water) | Percent (%) Visual Injury Ratings - 20 DAA, CYDPI ([3]; 560 g ae/ha in-water) | Percent (%) Visual Injury Ratings - 20 DAA, CYDPI ([3]; 1120 g ae/ha in-water) | Percent (%) Visual Injury Ratings - 20 DAA, MOOVA ([5]; 1120 g ae/ha in-water) | Percent (%) Visual Injury Ratings - 20 DAA, SCPJU ([6]; 1120 g ae/ha in-water)
10%: Percent (%) Visual Injury Ratings - 20 DAA, Wells′ Rice ([2]; 1120 g ae/ha in-water)
99%: Percent (%) Visual Injury Ratings - 20 DAA, MOOVA ([5]; 560 g ae/ha in-water)
70%: Percent (%) Visual Injury Ratings - 20 DAA, ECHCG ([4]; 560 g ae/ha in-water) | Percent (%) Visual Injury Ratings - 20 DAA, SCPJU ([6]; 280 g ae/ha in-water)
85%: Percent (%) Visual Injury Ratings - 20 DAA, ECHCG ([4]; 1120 g ae/ha in-water)
0%: Percent (%) Visual Injury Ratings - 20 DAA, M202′ Rice ([1]; 280 g ae/ha in-water) | Percent (%) Visual Injury Ratings - 20 DAA, M202′ Rice ([1]; 560 g ae/ha in-water) | Percent (%) Visual Injury Ratings - 20 DAA, Wells′ Rice ([2]; 280 g ae/ha in-water) | Percent (%) Visual Injury Ratings - 20 DAA, Wells′ Rice ([2]; 560 g ae/ha in-water) | Percent (%) Visual Injury Ratings - 28 DAA, ORYSP ([7]; 140 g ae/ha in-water 10 DAT) | Percent (%) Visual Injury Ratings - 28 DAA, ORYSP ([7]; 280 g ae/ha in-water 10 DAT) | Percent (%) Visual Injury Ratings - 28 DAA, ORYSP ([7]; 560 g ae/ha in-water 10 DAT)
20%: Percent (%) Visual Injury Ratings - 20 DAA, M202′ Rice ([1]; 1120 g ae/ha in-water)
95%: Percent (%) Visual Injury Ratings - 20 DAA, MOOVA ([5]; 280 g ae/ha in-water) | Percent (%) Visual Injury Ratings - 20 DAA, SCPJU ([6]; 560 g ae/ha in-water)
0.0%: Percent (%) Visual Injury Ratings - 28 DAA, CYPDI ([8]; 140 g ae/ha in-water 10 DAT) | Percent (%) Visual Injury Ratings - 28 DAA, CYPDI ([8]; 280 g ae/ha in-water 10 DAT) | Percent (%) Visual Injury Ratings - 28 DAA, CYPDI ([8]; 560 g ae/ha in-water 10 DAT) | Percent (%) Visual Injury Ratings - 28 DAA, ECHCG ([9]; 140 g ae/ha in-water 10 DAT) | Percent (%) Visual Injury Ratings - 28 DAA, ECHCG ([9]; 280 g ae/ha in-water 10 DAT) | Percent (%) Visual Injury Ratings - 28 DAA, ECHCG ([9]; 560 g ae/ha in-water 10 DAT) | Percent (%) Visual Injury Ratings - 28 DAA, LEFCH ([10]; 140 g ae/ha in-water 10 DAT) | Percent (%) Visual Injury Ratings - 28 DAA, LEFCH ([10]; 280 g ae/ha in-water 10 DAT) | Percent (%) Visual Injury Ratings - 28 DAA, LEFCH ([10]; 560 g ae/ha in-water 10 DAT) | Percent (%) Visual Injury Ratings - 28 DAA, MOOVA ([11]; 140 g ae/ha in-water 10 DAT) | Percent (%) Visual Injury Ratings - 28 DAA, MOOVA ([11]; 280 g ae/ha in-water 10 DAT) | Percent (%) Visual Injury Ratings - 28 DAA, MOOVA ([11]; 560 g ae/ha in-water 10 DAT) | Percent (%) Visual Injury Ratings - 28 DAA, SCPJU ([12]; 140 g ae/ha in-water 10 DAT) | Percent (%) Visual Injury Ratings - 28 DAA, SCPJU ([12]; 280 g ae/ha in-water 10 DAT) | Percent (%) Visual Injury Ratings - 28 DAA, SCPJU ([12]; 560 g ae/ha in-water 10 DAT)
40%: Percent (%) Visual Injury Ratings - 20 DAA, ECHCG ([4]; 280 g ae/ha in-water)
